Where “and” joins values, the source holds several entries; their conditions need not be identical. Equal values may be shown once.
Columns and labels:
[1] = target: T1, NOX1 (Homo sapiens, UniProt Q9Y5S8); test: Parallel control measurement of NOX1 activity / extracellular superoxide anion production; format: cell-based
T1 construct: endogenous in cells
T1 sequence (Q9Y5S8 1-564): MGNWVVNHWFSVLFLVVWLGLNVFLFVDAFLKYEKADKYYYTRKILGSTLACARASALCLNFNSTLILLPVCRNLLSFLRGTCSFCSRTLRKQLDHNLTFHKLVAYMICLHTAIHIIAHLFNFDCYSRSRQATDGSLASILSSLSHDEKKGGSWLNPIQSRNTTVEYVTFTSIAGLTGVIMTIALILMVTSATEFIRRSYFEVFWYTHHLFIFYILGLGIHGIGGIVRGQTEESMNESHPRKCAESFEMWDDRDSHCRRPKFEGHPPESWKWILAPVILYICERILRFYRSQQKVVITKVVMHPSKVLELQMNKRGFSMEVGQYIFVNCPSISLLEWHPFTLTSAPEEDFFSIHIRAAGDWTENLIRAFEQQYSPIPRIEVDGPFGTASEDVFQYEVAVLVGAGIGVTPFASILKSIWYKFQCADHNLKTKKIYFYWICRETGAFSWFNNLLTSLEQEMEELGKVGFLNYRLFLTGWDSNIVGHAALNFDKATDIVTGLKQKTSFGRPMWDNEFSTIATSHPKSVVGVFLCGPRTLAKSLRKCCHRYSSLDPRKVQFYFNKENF
T1 sequence (P13498 1-195 partner): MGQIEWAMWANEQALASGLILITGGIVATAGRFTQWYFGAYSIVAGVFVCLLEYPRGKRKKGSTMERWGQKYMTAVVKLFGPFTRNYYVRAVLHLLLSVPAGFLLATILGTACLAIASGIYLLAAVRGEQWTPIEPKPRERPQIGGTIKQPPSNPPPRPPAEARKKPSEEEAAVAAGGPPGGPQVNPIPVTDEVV
Protocol: Inkubationsbedingungen wie in Figur 11. Zusätzlich wurden 5 µM AEBSF oder 100 µM AEBSF zugegeben. 5 µM AEBSF führen zu einer Hemmung um nur 20 % von NOX1, während 100 µM mehr als 90 % hemmen, wie parallel durchgeführte Kontrollmessungen ergeben haben. Die geringfügige Hemmung durch 5 µM AEBSF reicht bereits aus, den Synergieeffekt aufzuheben und die Apoptoseinduktion auf das Niveau der alleinige Gabe von DADS zu drücken. Dies zeigt, dass tatsächlich die NOX-stimulierende Wirkung von Resveratrol für den Synergieeffekt notwendig war.
(§1) Die Messung der extrazellulären Superoxidanionenkonzentration von Tumorzellen sowie die Bestrahlungstechnik mit Niedrigdosis-Gammastrahlung wird in der Arbeit Temme and Bauer, 2013 beschrieben. Die Hemmung der NOD wird bei Scheit and Bauer, 2015, beschrieben. Viele Versuchsergebnisse wurden in den Figuren dargestellt.
Um zu klären, ob der durch das Hybridmolekül gebündelte Synergieeffekt tatsächlich durch die NOX-stimulierende Wirkung des von Resveratrol abgeleiteten Anteils mitgetragen wird, wurde die Wirkung des Hybridmoleküls in Gegenwart von 5 µM AEBSF untersucht. Für diese Hemmstoffkonzentration wurde in Parallelexperimenten ermittelt, dass sie eine Hemmung der extrazellulären Superoxidanionenproduktion um ca. 20 % zur Folge hat. […]

[2] = tested on: humane Magenkarzinomzellen MKN-45; test: Apoptosis induction in tumour cells (morphological criteria, duplicate assays); format: cell-based, human; conditions: for Konzentration, bei der der maximale Apoptose-auslösende Effekt erzielt wird: MKN-45, 3,5 Stunden Inkubation; for Apoptoseinduktion in Tumorzellen: MKN-45, 3 Stunden, 37 °C, 5 % CO2; for Konzentration für optimale Wirkung: induction of apoptosis in tumour cells, single agents, combinations with Resveratrol, or hybrid
Protocol: Nach 3 Stunden bei 37 ° C, 5 % CO2 wurden die Prozentsätze apoptotischer Zellen bestimmt. […] Nach 3 Stunden bei 37 ° C, 5 % CO2 wurden die Prozentsätze apoptotischer Zellen bestimmt.
Die Daten basieren allesamt auf der quantitativen Bestimmung der Apoptose mittels der klassischen morphologischen Kriterien Kernkondensation, Kernfragmentation und Membrane Blebbing nach definierten Inkubationszeiten bei 37°C.
Die Ansätze erfolgten bei einer Zelldichte von 125 000 Zellen/ml in 96-Loch-Platten mit einem Reaktionsvolumen von 100 µl. Alle Ansätze wurden als Doppelansätze geführt und pro Messpunkt wurden mindestens 200 Zellen morphologisch bewertet. Eine detaillierte Aufstellung der verwendeten Medien, Inhibitoren, Zellen ist in den Arbeiten Scheit and Bauer, 2015; Bauer und Zarkovic, 2014; Bauer et al., 2014; Bauer, 2015 beschrieben.
Um zu klären, ob das Hybridmolekül aus Struktur- und Wirkungselementen von Resveratrol und Diallyldisulfid in der Lage ist, Apoptose in Tumorzellen zu induzieren, und dabei zu prüfen, ob sich durch die Kombination der Einzelfunktionen in einem Molekül der Synergieeffekt bündeln ließ, wurden steigende Konzentrationen des Hybridmoleküls zu Magenkarzinomzellen der Linie MKN-45 gegeben. Die als Parallelansätze geführten Ansätze wurden sowohl ohne als auch in Anwesenheit von 2 mM des Singulettsauerstofffängers Histidin inkubiert, um zu prüfen, ob der durch das Hybridmolekül ausgelöste Effekt durch Singulettsauerstoff vermittelt wird. Zum Vergleich wurde das gleiche Experiment mit steigenden Konzentrationen DADS durchgeführt, ebenfalls mit und ohne Histidinzugabe. Nach 3,5 Stunden Inkubation wurde der Prozentsatz apoptotischer Zellen bestimmt.

[3] = tested on: nichtmaligne, diploide humane Fibroblasten Alpha-1; test: Apoptosis induction in non-malignant cells (morphological criteria); format: cell-based, human; conditions: Alpha-1 fibroblasts, 3 Stunden, 37 °C, 5 % CO2
Protocol: Figur 6: Diallyldisulfid und Dipropyldisulfid, nicht aber Diallylsulfid lösen selektiv in Tumorzellen interzelluläres Signaling und Apoptose aus. • A. 12 500 humane Magenkarzinomzellen MKN-45 oder 10 000 nichtmaligne, diploide humane Fibroblasten Alpha-1 wurden in Doppelansätzen in Serum-haltigen Medium mit den angegebenen Konzentrationen an Diallyldisulfid (DADS), Dipropyldisulfid (DPDS) oder Diallylsulfid (DAS) versetzt. Nach 3 Stunden bei 37 ° C, 5 % CO2 wurden die Prozentsätze apoptotischer Zellen bestimmt. […] Nach 3 Stunden bei 37 ° C, 5 % CO2 wurden die Prozentsätze apoptotischer Zellen bestimmt. Das Ergebnis zeigt, dass die durch DADS ausgelöste Apoptose von der Wirkung von Singulettsauerstoff, Superoxidanionen, Caspase-8, NO und HOCI abhängig ist.
Die Daten basieren allesamt auf der quantitativen Bestimmung der Apoptose mittels der klassischen morphologischen Kriterien Kernkondensation, Kernfragmentation und Membrane Blebbing nach definierten Inkubationszeiten bei 37°C. Parallel wurden diese Kriterien mithilfe der TUNEL-Reaktion gesichert, wodurch die für die Apoptose charakteristischen DNA-Strangbrüche nachgewiesen wurden, und die Abhängigkeit der Apoptoseinduktion von Caspase-3 und Caspase-9 überprüft, wodurch sichergestellt war, dass die Apoptose über den mitochondrialen Weg abläuft. […]

[4] = target: T2, protektive Katalase von Tumorzellen (Homo sapiens, UniProt P04040); test: Inactivation of protective catalase: sensitisation of MKN-45 cells to peroxynitrite-induced apoptosis; format: cell-based; conditions: 150 µM DADS for 20 min or 50 mM 3-AT, apoptosis 100 min after PON
T2 construct: endogenous in cells; host or cells: MKN-45 (human gastric carcinoma cell line)
T2 sequence (P04040 2-527 limits assumed): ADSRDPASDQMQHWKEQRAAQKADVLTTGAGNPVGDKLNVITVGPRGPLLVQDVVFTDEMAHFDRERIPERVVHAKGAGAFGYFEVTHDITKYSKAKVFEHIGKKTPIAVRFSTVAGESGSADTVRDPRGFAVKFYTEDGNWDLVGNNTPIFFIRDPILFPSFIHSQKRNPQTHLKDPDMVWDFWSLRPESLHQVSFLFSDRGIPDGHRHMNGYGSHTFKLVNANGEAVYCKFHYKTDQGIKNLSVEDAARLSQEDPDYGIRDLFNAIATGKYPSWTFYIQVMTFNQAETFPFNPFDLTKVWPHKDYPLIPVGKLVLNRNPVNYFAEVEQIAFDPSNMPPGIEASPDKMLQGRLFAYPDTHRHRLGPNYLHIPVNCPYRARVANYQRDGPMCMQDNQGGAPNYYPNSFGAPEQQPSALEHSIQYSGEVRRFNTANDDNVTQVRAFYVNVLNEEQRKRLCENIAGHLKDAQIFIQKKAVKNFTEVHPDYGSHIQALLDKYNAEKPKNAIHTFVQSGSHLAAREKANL
Protocol: Figur 8: DADS führt zur Inaktivierung der protektiven Katalase von Tumorzellen • A. Humane MKN-45 Tumorzellen enthielten entweder zunächst keine Zusätze (Kontrolle), 50 mM des Katalasehemmers 3-AT oder wurden für 20 Minuten mit 150 µM DADS behandelt. Nach einem Waschschritt und der Verdünnung der Zellkonzentration auf 6000 Zellen / 100 µl Ansatz wurde Peroxynitrit (PON) in den angegebenen Konzentrationen zugegeben. Nach 100 Minuten erfolgte die Bestimmung der apoptotischen Zellen in Doppelansätzen. Wie die Kontrolle zeigt, sind die Tumorzellen vor der Apoptose-auslösenden Wirkung von Peroxynitrit geschützt.
Figur 8 A zeigt, dass die kurzzeitige Behandlung von Tumorzellen mit DADS den gleichen Effekt hat, wie die Zugabe des Katalasehemmstoffs 3-Aminotriazol (3-AT), nämlich die Zellen für die Apoptose-auslösende Wirkung von exogen zugegebenem Peroxynitrit (PON) zu aktivieren. Die Sensitivierung für die Wirkung von PON ermöglicht die selektive Testung der Inaktivierung der membranständigen Katalase von Tumorzellen (Heinzelmann and Bauer, 2010; Böhm et al., 2015). Im Gegensatz zu DADS führt DAS zu keiner Inaktivierung der Katalase (Figur 8 F). […]

[5] = tested on: NO Dioxygenase; test: Test for inhibition of NO dioxygenase (enhanced effect of NO donor DEA NONOate on superoxide-producing cells); format: cell-based
Text: Die Messung erfordert, dass durch geeignete Maßnahmen, wie bei Scheit und Bauer, 2015 beschrieben, die Tumorzellkatalase maximal inhibiert, die Hemmwirkung von H2O2 auf ·NO und Peroxynitrit durch Anwesenheit eines Katalasemimetikums verhindert und de novo Synthese von ·NO durch die Anwesenheit des NOS Inhibitors L-NAME verhindert wird.
as §1

## NCCc1ccc(S(=O)(=O)F)cc1 [AEBSF, 4-(2-Aminoethyl)benzenesulfonyl fluoride]
[1]; 5 µM
  Hemmung von NOX1 / der extrazellulären Superoxidanionenproduktion: 20%
[1]; 100 µM
  Hemmung von NOX1 / der Superoxidanionensynthese: > 95% and > 90%

## C=CCSSCC=C [DADS, Diallyldisulfid]
[2]; Homo sapiens, MKN-45, 3.5 h, read-out: Konzentration für den gleichen Effekt (ca. 40 Prozent des Maximalwertes der Apoptoseinduktion)
  EC40: 1.1 µM
[2]; alleinige Gabe
  Konzentration, bei der der maximale Apoptose-auslösende Effekt erzielt wird: 10 µM
[2]
  Apoptoseinduktion in Tumorzellen: konzentrationsabhängig zur Apoptose
[3]
  Apoptoseinduktion in normalen Zellen: nicht aber bei den normalen Zellen
[4]
  Wirkung auf die protektive Katalase (sensitisation to peroxynitrite): gleichen Effekt wie der Katalasehemmstoff
[5]
  Hemmung der NO Dioxygenase: Hemmung dieses Enzyms

## C=CCSCC=C [DAS, Diallylsulfid]
[2]
  Apoptoseinduktion in Tumorzellen: keine Aktivität
[4]
  Wirkung auf die protektive Katalase (sensitisation to peroxynitrite): keine Wirkung auf die protektive Katalase

## CCCSSCCC [DPDS, Dipropyldisulfid]
[2]
  Apoptoseinduktion in Tumorzellen: konzentrationsabhängig zur Apoptose
[3]
  Apoptoseinduktion in normalen Zellen: nicht aber bei den normalen Zellen

## C=CCSSCCCOc1cc(/C=C/c2ccc(O)cc2)cc(OCCCSSCC=C)c1 [Hybridmolekül]
[2]; 1 nM, MKN-45, 3,5 Stunden
  Prozent des Maximalwertes der Apoptoseinduktion: ca. 40 Prozent
[2]
  Konzentration, bei der der maximale Apoptose-auslösende Effekt erzielt wird: 0.01 µM
  Konzentration für optimale Wirkung: 3 to 30 nM
[2]; plus 0,9 µM Resveratrol, 0.3 µM DADS or 2,5 µM NOR-NOHA, MKN-45, 3,5 Stunden
  Steigerung der Wirkung durch Zugabe von Einzelkomponenten: nicht steigern
[2]; shift of concentration-effect curves, apoptosis in MKN-45
  wirksamer als Diallyldisulfid: ~1000 -fach

## O=c1c(O)c(-c2ccc(O)c(O)c2)oc2cc(O)cc(O)c12 [Quercitin]
[5]
  Hemmung der NO Dioxygenase: Hemmung dieses Enzyms

## CC(=O)O[C@H]1C(=O)[C@@]2(C)[C@H]([C@H](OC(=O)c3ccccc3)[C@]3(O)C[C@H](OC(=O)[C@H](O)[C@@H](NC(=O)c4ccccc4)c4ccccc4)C(C)=C1C3(C)C)[C@]1(OC(C)=O)CO[C@@H]1C[C@@H]2O [Taxol]
[2]; from Tabelle 2
  wirksamer in Bezug auf Induktion der Apoptose in Tumorzellen als Diallyldisulfid: ≥ 10 -fach
[2]
  Konzentration für optimale Wirkung: 900 to 3800 nM
[5]
  Hemmung der NO Dioxygenase: Hemmung dieses Enzyms

## Epothilon B
[5]
  Hemmung der NO Dioxygenase: Hemmung dieses Enzyms
